Experimental data published in US11260027B2, “Donor organ pre-treatment formulation” (MUSC FOUNDATION FOR RESEARCH DEVELOPMENT, priority 2015, dated 2022).

Columns and labels:
[1] = target: integrin αVβ3 on human umbilical vein endothelial cells (HUVEC) (human) (UniProt P06756); assay: cell-based or functional assay
HUVEC = system: HUVEC
Method: (§1) Human Umbilical Vein Endothelial Cells (HUVEC), complete endothelial growth medium-2 (EGM-2) and bullet kit were purchased from Lonza (Walkersville, Md.). Cells were grown and maintained in a humidified 37° C. and 5% CO2 atmosphere. Cells were expanded on T75 cm^2 polystyrene flasks to passage 5 and plated onto 6-well plates for experimental assays (Fischer Scientific, Pittsburgh, Pa.). MCEC, a normal mouse cardiac endothelial cell line from Cedarlane (Ontario, Canada), were cultured in Dulbecco's Modified Eagle Medium (DMEM) (Life Technologies, CA) supplemented with 10% fetal bovine serum (FBS) in a 37° C. incubator with humidified room air and 5% CO2.
(§2) M-Per lysis of Ecs was used as an assay control.

MCEC = system: MCEC
Method: as §1, §2

aortic allograft = assay: Aortic allograft model of chronic allograft rejection (Balb/c to C57Bl/6); assay type: in vivo, mouse; conditions: 100 or 1000 ng/ml tested; quantified intimal thickening
Method: Male Balb/c (H-2^d) and C57BL/6 (B6;H-2^b) mice (8-10 weeks) were obtained from Jackson laboratory (Bar Harbor, Me.). All mice weighed 25-30 g and were housed under specific pathogen-free conditions at the Medical University of South Carolina (Charleston, S.C.) and were used for transplantation studies. In the following series, transplants to male B6 mice were performed under clean conditions using Balb/c donors in the allograft group (Balb/c to B6, n=20) and B6 donors in the isograft group (B6 to B6, n=10). The mice were anesthetized with intraperitoneal injections of ketamine (75 mg/kg, Lloyd Laboratories, Shenandoah, Iowa, USA) and xylazine (16 mg/kg, Vedco, Inc., St. Joseph, Mo., USA) diluted in sterile normal saline. An operating microscope with 16×magnification was used for the surgical procedure. The cuff used for the anastamosis consisted of a 0.6 mm body and a 0.6 mm extension crafted from a 24 gauge polyimide catheter (inner diameter 0.5 mm, wall thickness 0.025 mm, cat. No. 141-0027, Vention Medical, NH, USA).
After satisfactory anesthetic was administered, the donor mouse was placed in supine position and a midline thoraco-abdominal incision was made. […] For orthotopic transplantation, the bowel was reflected cephalad, the colon was retracted to the animal's left side, and the seminal vesicles and testes were distracted caudally. […]

integrin αVβ3 on human umbilical vein endothelial cells (HUVEC) (human), sequence (P06756 31-1048, chain 1 of 2): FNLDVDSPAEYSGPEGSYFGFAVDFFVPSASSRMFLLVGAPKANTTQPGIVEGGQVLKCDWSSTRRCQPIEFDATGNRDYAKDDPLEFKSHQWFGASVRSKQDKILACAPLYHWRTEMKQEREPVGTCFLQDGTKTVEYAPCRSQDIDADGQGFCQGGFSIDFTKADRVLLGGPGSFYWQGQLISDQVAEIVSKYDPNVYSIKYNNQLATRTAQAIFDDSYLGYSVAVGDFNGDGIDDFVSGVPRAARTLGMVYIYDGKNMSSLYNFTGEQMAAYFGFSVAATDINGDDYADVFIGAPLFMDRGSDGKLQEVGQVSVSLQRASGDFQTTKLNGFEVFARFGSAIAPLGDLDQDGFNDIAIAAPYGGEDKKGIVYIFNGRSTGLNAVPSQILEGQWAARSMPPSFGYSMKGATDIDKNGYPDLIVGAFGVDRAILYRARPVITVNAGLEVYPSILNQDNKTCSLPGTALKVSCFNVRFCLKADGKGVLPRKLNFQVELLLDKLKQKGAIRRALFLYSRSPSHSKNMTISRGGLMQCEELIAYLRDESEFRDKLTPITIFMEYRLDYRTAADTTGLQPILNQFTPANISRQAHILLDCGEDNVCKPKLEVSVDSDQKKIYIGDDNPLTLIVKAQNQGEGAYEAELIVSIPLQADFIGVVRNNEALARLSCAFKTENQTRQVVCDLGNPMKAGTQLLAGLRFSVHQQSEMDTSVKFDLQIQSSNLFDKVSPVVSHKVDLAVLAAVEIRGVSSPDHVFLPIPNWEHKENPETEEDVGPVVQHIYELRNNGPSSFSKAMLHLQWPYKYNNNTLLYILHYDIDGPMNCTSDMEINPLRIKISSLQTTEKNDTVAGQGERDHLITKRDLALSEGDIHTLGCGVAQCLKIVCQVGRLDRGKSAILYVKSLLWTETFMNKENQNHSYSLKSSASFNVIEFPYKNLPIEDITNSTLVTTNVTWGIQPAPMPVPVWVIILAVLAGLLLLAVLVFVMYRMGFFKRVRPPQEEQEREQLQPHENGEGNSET
integrin αVβ3 on human umbilical vein endothelial cells (HUVEC) (human), sequence (P05106 27-788, chain 2 of 2, further chain): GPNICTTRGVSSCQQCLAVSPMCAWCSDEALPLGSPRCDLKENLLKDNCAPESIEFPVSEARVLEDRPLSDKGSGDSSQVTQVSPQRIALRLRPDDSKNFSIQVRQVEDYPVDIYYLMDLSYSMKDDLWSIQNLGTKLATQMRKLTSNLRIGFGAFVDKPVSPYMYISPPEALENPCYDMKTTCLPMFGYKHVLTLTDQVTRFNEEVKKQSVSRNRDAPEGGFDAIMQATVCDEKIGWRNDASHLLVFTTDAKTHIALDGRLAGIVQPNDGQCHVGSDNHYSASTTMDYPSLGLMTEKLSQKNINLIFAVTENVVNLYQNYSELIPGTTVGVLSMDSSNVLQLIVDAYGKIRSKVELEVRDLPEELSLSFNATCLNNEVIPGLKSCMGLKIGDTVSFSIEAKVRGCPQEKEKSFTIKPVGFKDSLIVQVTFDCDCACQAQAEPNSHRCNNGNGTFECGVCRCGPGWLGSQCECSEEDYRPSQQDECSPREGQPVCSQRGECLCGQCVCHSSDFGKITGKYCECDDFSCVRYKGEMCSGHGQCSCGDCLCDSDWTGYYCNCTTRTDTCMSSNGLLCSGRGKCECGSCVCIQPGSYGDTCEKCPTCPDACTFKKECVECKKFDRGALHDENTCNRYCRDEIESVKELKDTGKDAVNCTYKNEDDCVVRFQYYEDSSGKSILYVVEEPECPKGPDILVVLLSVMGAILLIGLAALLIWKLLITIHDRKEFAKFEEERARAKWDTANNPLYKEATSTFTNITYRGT

| Molecule | increase of fluorescence in HUVEC over a 6 hours period, without brefeldin A (-BA) [1] | micelle internalization into HUVEC (confocal microscopy, Dylight 680 fluorescence) compared to untargeted RaM [1] | cell toxicity and death (MTS cell viability) (HUVEC) | concentration that did induce toxicity (HUVEC; human, 6 h) | cell toxicity and death (MTS cell viability) (MCEC) | concentration that did induce toxicity (MCEC; mouse, 6 h) | dose in Belzer UW solution that provided protection (aortic allograft) |
| --- | --- | --- | --- | --- | --- | --- | --- |
| Targeted Rapamycin Micelles (TRaM): rapamycin micelles bearing the cyclic peptide arginine-glycine-aspartate (cRGD) on the surface, labeled with Dylight 680 | 88% | > 50% | – | – | – | – | – |
| CO[C@H]1C[C@@H]2CC[C@@H](C)[C@@](O)(O2)C(=O)C(=O)N2CCCC[C@H]2C(=O)O[C@H]([C@H](C)C[C@@H]2CC[C@@H](O)[C@H](OC)C2)CC(=O)[C@H](C)/C=C(\C)[C@@H](O)[C@@H](OC)C(=O)[C@H](C)C[C@H](C)/C=C/C=C/C=C/1C [free rapamycin, rapamycin] | – | – | do not result in significant cell toxicity and death | 3000 ng/mL | do not result in significant cell toxicity and death | 3000 ng/mL | 1000 ng/mL |
